From ChEMBL document CHEMBL2440029, “Discovery and characterization of NVP-QAV680, a potent and selective CRTh2 receptor antagonist suitable for clinical testing in allergic diseases” (Bioorg Med Chem, 2013)
In brackets after ≈: the same amount, converted by molar mass. Each block holds one molecule with its values, some of them ahead of it. Activity calls are given as the source filed them. The calls are words filed in the database; no cut-off is given here.

Columns and labels:
[1] = biological target: T1, Prostaglandin D2 receptor 2 (Homo sapiens) (UniProt Q9Y5Y4); assay: Antagonist activity at human CRTh2 receptor expressed in CHO cells assessed as inhibition of prostaglandin D2 and forskolin-induced cAMP accumulation after 45 mins in presence of 0.1% HSA; type: functional, cell-based
T1 sequence (whole entry): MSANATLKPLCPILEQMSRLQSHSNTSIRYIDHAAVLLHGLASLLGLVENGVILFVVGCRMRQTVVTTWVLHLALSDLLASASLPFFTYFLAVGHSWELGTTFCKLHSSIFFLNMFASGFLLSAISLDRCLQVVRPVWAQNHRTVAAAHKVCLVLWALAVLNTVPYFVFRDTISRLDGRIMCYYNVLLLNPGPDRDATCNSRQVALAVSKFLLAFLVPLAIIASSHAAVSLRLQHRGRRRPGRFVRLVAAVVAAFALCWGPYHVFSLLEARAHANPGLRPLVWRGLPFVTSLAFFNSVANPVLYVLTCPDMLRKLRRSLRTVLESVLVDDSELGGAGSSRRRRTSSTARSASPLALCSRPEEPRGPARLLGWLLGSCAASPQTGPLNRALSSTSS

[2] = biological target: T2, Prostaglandin D2 receptor 2 (Homo sapiens, UniProt Q9Y5Y4); assay: Antagonist activity at human CRTh2 receptor expressed in CHO cells assessed as inhibition of prostaglandin D2 and forskolin-induced cAMP accumulation after 45 mins; type: functional, cell-based
T2 sequence (Q9Y5Y4 whole entry): T1 sequence (whole entry)

[3] = biological target: T2, Prostaglandin D2 receptor 2; assay: Displacement of [3H]-prostaglandin D2 from human CRTh2 receptor expressed in CHO cells after 2 hrs; type: cell-based
[4] = biological target: Prostaglandin G/H synthase 1 (Homo sapiens) (UniProt P23219); assay: Inhibition of human COX1 at 10 uM
Prostaglandin G/H synthase 1 (Homo sapiens), sequence (P23219 whole entry): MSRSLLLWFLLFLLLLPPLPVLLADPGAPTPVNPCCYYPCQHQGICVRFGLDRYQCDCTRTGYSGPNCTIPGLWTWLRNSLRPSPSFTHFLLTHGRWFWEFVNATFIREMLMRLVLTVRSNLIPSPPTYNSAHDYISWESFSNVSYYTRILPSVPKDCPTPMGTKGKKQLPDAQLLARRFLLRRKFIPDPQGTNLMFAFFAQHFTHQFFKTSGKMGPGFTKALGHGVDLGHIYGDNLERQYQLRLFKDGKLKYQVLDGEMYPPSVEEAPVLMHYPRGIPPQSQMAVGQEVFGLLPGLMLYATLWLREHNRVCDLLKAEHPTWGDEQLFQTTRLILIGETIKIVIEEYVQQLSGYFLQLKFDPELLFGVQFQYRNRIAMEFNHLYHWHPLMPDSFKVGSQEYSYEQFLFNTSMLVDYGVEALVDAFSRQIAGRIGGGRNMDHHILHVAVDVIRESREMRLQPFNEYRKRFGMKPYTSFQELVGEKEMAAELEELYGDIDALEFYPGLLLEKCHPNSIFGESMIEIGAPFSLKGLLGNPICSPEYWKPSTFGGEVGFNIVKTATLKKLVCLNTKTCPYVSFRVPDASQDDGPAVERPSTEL

[5] = biological target: T3, Prostaglandin G/H synthase 2 (Homo sapiens) (UniProt P35354); assay: Inhibition of human COX2 at 10 uM
T3 sequence (whole entry): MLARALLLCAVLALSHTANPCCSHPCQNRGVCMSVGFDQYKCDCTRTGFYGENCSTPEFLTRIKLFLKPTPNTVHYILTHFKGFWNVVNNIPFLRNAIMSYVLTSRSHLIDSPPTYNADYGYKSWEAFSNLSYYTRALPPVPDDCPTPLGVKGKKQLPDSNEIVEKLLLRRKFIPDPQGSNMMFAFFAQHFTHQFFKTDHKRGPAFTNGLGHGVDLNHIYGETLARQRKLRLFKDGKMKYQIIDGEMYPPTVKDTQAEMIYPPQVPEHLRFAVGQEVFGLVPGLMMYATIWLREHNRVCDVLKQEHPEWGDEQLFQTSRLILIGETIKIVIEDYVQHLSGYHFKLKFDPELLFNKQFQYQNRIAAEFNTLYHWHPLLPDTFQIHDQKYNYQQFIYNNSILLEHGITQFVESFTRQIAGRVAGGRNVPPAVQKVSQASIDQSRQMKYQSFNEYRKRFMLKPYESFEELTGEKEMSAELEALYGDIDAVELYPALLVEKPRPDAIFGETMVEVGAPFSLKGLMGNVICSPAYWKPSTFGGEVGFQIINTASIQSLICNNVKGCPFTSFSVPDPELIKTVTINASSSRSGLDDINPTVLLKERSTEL

[6] = Antagonist activity at CRTh2 receptor in human isolated eosinophil assessed as inhibition of DK-PGD2-induced shape change after 5 mins by flow cytometry
[7] = biological target: T4, Prostaglandin D2 receptor 2 (Mus musculus, UniProt Q9Z2J6); assay: Antagonist activity at mouse CRTh2 receptor expressed in CHO-K1 cells assessed as inhibition of […]-GTP-gamma-S binding after 50 mins by liquid scintillation counting; type: functional, cell-based
T4 sequence (Q9Z2J6 whole entry): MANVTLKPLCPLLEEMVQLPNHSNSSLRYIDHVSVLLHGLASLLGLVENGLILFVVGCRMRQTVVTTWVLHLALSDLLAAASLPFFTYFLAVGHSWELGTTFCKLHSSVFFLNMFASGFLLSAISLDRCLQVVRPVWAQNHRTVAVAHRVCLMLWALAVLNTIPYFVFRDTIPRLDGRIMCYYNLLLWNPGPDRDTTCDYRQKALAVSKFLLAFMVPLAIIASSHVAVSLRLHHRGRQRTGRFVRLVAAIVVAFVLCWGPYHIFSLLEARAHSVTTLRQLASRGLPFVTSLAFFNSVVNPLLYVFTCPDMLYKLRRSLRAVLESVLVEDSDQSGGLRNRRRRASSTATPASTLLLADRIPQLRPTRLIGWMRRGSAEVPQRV

[8] = Oral bioavailability in Wistar rat at 100 mg/kg; type: ADME, organism-based; conditions: in vivo
[9] = biological target: T4, Prostaglandin D2 receptor 2; assay: Displacement of [3H]-prostaglandin D2 from mouse CRTh2 receptor expressed in CHO cells after 2 hrs; type: cell-based
[10] = AUC (0 to 48 hrs) in Wistar rat at 100 mg/kg, po; type: ADME, organism-based; set-up: time < 48 hr, dose 100 mg/kg, route oral; conditions: plasma
[11] = Oral bioavailability in Wistar rat at 3 mg/kg; type: ADME, organism-based; conditions: in vivo
[12] = AUC (0 to 48 hrs) in Wistar rat at 3 mg/kg, po; type: ADME, organism-based; set-up: time < 48 hr, dose 3 mg/kg, route oral; conditions: plasma
[13] = Tmax in Wistar rat at 3 mg/kg, po; type: ADME, organism-based; set-up: dose 3 mg/kg, route oral; conditions: in vivo
[14] = Tmax in Wistar rat at 100 mg/kg, po; type: ADME, organism-based; set-up: dose 100 mg/kg, route oral; conditions: in vivo
[15] = Cmax in Wistar rat at 3 mg/kg, po; type: ADME, organism-based; set-up: dose 3 mg/kg, route oral; conditions: in vivo
[16] = Cmax in Wistar rat at 100 mg/kg, po; type: ADME, organism-based; set-up: dose 100 mg/kg, route oral; conditions: in vivo
[17] = Volume of distribution at steady state in Wistar rat at 0.5 mg/kg, iv; type: ADME, organism-based; set-up: dose 0.5 mg/kg, route intravenous; conditions: in vivo, read-out: Vdss
[18] = Terminal half life in Wistar rat at 0.5 mg/kg, iv; type: ADME, organism-based; set-up: dose 0.5 mg/kg, route intravenous; conditions: in vivo, read-out: beta t1/2 (converted)
[19] = Solubility of the compound at pH 6.8; type: physicochemical; conditions: buffer
[20] = Clearance in Wistar rat at 0.5 mg/kg, iv; type: ADME, organism-based; set-up: dose 0.5 mg/kg, route intravenous; conditions: in vivo
[21] = Apparent permeability from apical to basolateral side in human Caco2 cells; type: ADME, cell-based; conditions: Caco-2
[22] = Apparent permeability from basolateral to apical side in human Caco2 cells; type: ADME, cell-based; conditions: Caco-2
[23] = Cmax in Balb/c mouse at 5 mg/kg, po; type: ADME, organism-based; set-up: dose 5 mg/kg, route oral; conditions: in vivo
[24] = biological target: Polyunsaturated fatty acid 5-lipoxygenase (Homo sapiens) (UniProt P09917); assay: Inhibition of human 5-lipoxygenase at 10 uM
Polyunsaturated fatty acid 5-lipoxygenase (Homo sapiens), sequence (P09917 whole entry): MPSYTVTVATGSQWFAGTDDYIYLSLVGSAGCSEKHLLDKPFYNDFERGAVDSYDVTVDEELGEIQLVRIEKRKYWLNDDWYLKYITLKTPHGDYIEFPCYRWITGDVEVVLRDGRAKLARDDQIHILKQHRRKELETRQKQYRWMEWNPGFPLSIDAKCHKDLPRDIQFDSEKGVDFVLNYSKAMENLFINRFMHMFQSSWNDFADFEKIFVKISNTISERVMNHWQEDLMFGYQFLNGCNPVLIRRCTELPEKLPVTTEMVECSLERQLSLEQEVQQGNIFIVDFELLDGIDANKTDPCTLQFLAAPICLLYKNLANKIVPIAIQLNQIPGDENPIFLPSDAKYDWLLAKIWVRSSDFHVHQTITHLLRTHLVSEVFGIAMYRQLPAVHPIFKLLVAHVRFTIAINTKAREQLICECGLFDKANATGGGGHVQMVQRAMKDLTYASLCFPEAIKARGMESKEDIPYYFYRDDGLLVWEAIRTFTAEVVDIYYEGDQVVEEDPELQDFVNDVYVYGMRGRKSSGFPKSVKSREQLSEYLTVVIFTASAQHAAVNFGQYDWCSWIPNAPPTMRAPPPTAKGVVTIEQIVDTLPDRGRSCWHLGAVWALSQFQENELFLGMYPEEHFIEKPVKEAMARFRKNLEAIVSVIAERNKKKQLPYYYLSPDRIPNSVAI

[25] = biological target: Leukotriene B4 receptor 1 (Homo sapiens) (UniProt Q15722); assay: Inhibition of LTB4 receptor (unknown origin) at 10 uM
Leukotriene B4 receptor 1 (Homo sapiens), sequence (Q15722 whole entry): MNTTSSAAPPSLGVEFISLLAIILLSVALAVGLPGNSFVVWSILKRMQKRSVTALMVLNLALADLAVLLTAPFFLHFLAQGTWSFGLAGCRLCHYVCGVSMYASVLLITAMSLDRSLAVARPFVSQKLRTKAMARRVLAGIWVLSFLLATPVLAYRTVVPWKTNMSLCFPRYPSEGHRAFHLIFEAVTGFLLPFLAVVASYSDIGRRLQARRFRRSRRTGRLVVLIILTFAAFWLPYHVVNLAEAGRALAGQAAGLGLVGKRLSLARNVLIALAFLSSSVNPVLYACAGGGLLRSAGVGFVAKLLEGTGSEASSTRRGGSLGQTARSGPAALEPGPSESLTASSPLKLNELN

Thromboxane A2 receptor = Thromboxane A2 receptor (Homo sapiens, UniProt P21731); assay: Inhibition of prostanoid TP receptor (unknown origin)
Thromboxane A2 receptor, sequence (P21731 whole entry): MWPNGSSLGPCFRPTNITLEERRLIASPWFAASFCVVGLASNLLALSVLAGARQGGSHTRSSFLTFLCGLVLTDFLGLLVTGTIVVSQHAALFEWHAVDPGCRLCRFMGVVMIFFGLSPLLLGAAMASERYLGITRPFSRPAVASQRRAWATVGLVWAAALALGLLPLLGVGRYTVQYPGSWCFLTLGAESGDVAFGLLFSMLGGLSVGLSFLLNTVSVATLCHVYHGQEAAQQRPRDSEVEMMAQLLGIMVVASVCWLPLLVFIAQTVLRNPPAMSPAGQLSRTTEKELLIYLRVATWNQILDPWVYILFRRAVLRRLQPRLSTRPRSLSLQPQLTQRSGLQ

[26] = biological target: Prostaglandin E2 receptor EP4 subtype (Homo sapiens, UniProt P35408); assay: Inhibition of prostanoid EP4 receptor (unknown origin)
[27] = biological target: Prostaglandin F2-alpha receptor (Homo sapiens, UniProt P43088); assay: Inhibition of prostanoid FP receptor (unknown origin)
Prostaglandin F2-alpha receptor, sequence (P43088 whole entry): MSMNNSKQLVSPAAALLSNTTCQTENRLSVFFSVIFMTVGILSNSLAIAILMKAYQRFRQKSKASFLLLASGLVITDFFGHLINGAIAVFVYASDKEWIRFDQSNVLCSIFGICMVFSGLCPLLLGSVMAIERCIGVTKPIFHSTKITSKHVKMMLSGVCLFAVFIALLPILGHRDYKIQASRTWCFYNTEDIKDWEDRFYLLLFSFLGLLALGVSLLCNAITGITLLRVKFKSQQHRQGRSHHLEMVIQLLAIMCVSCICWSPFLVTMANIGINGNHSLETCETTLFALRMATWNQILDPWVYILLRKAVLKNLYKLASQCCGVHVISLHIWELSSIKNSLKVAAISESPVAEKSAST

[28] = biological target: Prostaglandin E2 receptor EP3 subtype (Homo sapiens, UniProt P43115); assay: Inhibition of prostanoid EP3 receptor (unknown origin)
Prostaglandin E2 receptor EP3 subtype, sequence (P43115 whole entry): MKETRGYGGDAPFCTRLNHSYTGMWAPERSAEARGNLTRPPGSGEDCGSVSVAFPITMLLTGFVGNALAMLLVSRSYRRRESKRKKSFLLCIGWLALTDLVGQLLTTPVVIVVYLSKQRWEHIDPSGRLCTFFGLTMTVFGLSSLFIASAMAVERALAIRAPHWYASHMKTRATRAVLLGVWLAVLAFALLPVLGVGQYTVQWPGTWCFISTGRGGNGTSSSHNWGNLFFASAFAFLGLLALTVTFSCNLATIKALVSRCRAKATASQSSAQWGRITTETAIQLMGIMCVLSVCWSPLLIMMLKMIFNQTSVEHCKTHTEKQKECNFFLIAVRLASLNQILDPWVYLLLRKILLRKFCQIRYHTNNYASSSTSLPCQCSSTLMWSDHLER

Prostacyclin receptor = Prostacyclin receptor (Homo sapiens, UniProt P43119); assay: Inhibition of prostanoid IP receptor (unknown origin)
Prostacyclin receptor, sequence (P43119 whole entry): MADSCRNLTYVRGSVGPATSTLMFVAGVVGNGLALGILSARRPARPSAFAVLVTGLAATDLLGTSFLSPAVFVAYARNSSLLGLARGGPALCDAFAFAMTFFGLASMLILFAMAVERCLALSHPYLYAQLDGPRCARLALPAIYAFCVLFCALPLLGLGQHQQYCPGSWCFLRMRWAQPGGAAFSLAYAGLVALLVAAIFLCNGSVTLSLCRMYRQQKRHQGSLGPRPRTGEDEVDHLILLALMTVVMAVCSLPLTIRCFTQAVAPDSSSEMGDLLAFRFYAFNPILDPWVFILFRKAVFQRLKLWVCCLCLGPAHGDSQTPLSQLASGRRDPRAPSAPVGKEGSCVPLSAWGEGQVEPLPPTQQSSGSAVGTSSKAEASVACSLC

[29] = biological target: Prostaglandin E2 receptor EP2 subtype (Homo sapiens, UniProt P43116); assay: Inhibition of prostanoid EP2 receptor (unknown origin)
[30] = biological target: Prostaglandin D2 receptor (Homo sapiens, UniProt Q13258); assay: Inhibition of prostanoid DP1 receptor (unknown origin)
Prostaglandin D2 receptor, sequence (Q13258 whole entry): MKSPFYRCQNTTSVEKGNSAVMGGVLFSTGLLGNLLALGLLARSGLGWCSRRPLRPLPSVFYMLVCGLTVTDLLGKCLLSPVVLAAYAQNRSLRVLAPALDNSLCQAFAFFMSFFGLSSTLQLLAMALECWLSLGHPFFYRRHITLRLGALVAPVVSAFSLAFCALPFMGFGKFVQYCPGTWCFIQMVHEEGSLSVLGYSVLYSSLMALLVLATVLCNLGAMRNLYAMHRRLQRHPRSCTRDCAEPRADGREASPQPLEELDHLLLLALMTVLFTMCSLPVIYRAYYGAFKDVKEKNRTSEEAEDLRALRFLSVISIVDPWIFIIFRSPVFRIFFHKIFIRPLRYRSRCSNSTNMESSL

Cytochrome P450 2D6 = Cytochrome P450 2D6 (Homo sapiens, UniProt P10635); assay: Inhibition of human CYP2D6; type: ADME
Cytochrome P450 2D6, sequence (P10635 whole entry): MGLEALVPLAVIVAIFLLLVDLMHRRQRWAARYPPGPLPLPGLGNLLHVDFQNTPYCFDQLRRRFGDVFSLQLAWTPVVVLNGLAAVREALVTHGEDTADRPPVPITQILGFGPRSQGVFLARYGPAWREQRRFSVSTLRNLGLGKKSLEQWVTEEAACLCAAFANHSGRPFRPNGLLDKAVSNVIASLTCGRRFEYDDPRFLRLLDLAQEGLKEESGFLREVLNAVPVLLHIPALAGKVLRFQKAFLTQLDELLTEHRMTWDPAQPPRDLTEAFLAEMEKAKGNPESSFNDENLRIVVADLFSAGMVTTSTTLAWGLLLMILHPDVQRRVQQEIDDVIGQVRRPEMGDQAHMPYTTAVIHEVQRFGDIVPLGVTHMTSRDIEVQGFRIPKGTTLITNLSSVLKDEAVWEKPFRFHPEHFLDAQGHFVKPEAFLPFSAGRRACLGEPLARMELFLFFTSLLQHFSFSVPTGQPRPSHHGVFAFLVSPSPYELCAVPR

Cytochrome P450 3A4 = Cytochrome P450 3A4 (Homo sapiens, UniProt P08684); assay: Inhibition of human CYP3A4; type: ADME
Cytochrome P450 3A4, sequence (P08684 whole entry): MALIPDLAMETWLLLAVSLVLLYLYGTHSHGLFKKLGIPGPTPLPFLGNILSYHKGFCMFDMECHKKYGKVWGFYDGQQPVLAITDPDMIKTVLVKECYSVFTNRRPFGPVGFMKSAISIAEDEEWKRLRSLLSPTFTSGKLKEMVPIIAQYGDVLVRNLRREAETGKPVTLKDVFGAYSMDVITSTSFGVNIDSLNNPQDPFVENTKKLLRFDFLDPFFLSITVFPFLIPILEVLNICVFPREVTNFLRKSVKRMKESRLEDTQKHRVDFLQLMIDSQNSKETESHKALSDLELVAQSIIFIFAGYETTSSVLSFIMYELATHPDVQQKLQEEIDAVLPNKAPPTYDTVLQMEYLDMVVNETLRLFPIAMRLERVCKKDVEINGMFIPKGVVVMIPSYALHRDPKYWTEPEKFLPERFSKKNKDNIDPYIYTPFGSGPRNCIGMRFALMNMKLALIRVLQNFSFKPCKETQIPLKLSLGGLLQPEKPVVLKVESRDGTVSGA

Cytochrome P450 1A2 = Cytochrome P450 1A2 (Homo sapiens, UniProt P05177); assay: Inhibition of human CYP1A2; type: ADME
Cytochrome P450 2C9 = Cytochrome P450 2C9 (Homo sapiens, UniProt P11712); assay: Inhibition of human CYP2C9; type: ADME
[31] = biological target: Cysteinyl leukotriene receptor 1 (Homo sapiens) (UniProt Q9Y271); assay: Inhibition of CysLT1 receptor (unknown origin) at 10 uM
Mus musculus = assay: Inhibition of FITC hapten-induced ear edema in po dosed Balb/cJBomTac mouse allergic contact dermatitis model after 24 hrs; type: functional
[32] = biological target: Cysteinyl leukotriene receptor 2 (Homo sapiens) (UniProt Q9NS75); assay: Inhibition of CysLT2 receptor (unknown origin) at 10 uM
Rattus norvegicus [33] = assay: Inhibition of eosinophil recruitment in bronchoalveolar lavage in po dosed Sprague-Dawley rat allergic disease model; type: functional, organism-based; conditions: Lung
Rattus norvegicus [34] = assay: Inhibition of eosinophil recruitment in bronchoalveolar lavage in Sprague-Dawley rat allergic disease model at 1 mg/kg, po; type: functional, organism-based; set-up: dose 1 mg/kg; conditions: Lung
[35] = Fraction unbound in Sprague-Dawley rat plasma at 0.1 to 0.3 mg/kg, po; type: ADME, organism-based; set-up: dose 0.1-0.3 mg/kg, route oral
[36] = Inhibition of DK-PGD2-induced IL-13 production in human CD4+ Th2 cells after 6 to 8 hrs; type: functional, cell-based
[37] = Inhibition of DK-PGD2-induced IL-5 production in human CD4+ Th2 cells after 6 to 8 hrs; type: functional, cell-based

SMILES: Cc1c(CC(=O)O)c2cccnc2n1Cc1ccc(Cl)cc1
fold change (FC) [1]: 4.1 | IC50 [2]: 484 nM | Ki [3]: 149 nM | inhibition [4]: inactive | inhibition [5]: inactive

SMILES: Cc1c(CC(=O)O)c2cccnc2n1Cc1ccccn1
Ki [3]: 2940 nM

SMILES: Cc1c(CC(=O)O)c2cccnc2n1Cc1ccc(C#N)cc1
fold change (FC) [1]: 3.6 | IC50 [2]: 554 nM | Ki [3]: 379 nM

SMILES: Cc1c(CC(=O)O)c2cccnc2n1Cc1ccc(S(=O)(=O)C(F)(F)F)cc1
fold change (FC) [1]: 0.9 | IC50 [2]: 147 nM | Ki [3]: 208 nM

SMILES: Cc1c(CC(=O)O)c2cccnc2n1S(=O)(=O)c1ccc(Cl)cc1
fold change (FC) [1]: 3.8 | IC50 [2]: 565 nM | inhibition [4]: inactive | inhibition [5]: inactive | IC50 [6]: 108 nM

SMILES: Cc1c(CC(=O)O)c2cccnc2n1Cc1ccc(S(C)(=O)=O)cc1 [QAV680]
IC50 [7]: 94 nM | bioavailability [8]: 35% | Ki [9]: 10 nM | AUC(0-t) at 48 h [10]: 128 µM·h | bioavailability [11]: 54% | AUC(0-t) at 48 h [12]: 6.06 µM·h | Tmax [13]: 39.6 min | Tmax [14]: 39.6 min | Cmax [15]: 2.6 µM | Cmax [16]: 42.7 µM | Vd [17]: 5.5 L/kg | half-life [18]: 1030 min | solubility [19]: 5200 µg/mL (≈ 14.5 mM) | clearance [20]: 15.2 mL/min/kg | Papp A→B [21]: 0.9 ×10⁻⁶ cm/s | Papp B→A [22]: 2.2 ×10⁻⁶ cm/s | fold change (FC) [1]: 3.1 | IC50 [2]: 37 nM | Ki [3]: 36 nM | Cmax [23]: 7.6 µM | inhibition [24]: inactive | inhibition [4]: inactive | inhibition [5]: inactive | inhibition [25]: inactive | IC50 (Thromboxane A2 receptor): > 10000 nM | IC50 [26]: > 10000 nM | IC50 [27]: > 10000 nM | IC50 [28]: > 10000 nM | IC50 (Prostacyclin receptor): > 10000 nM | IC50 [29]: > 10000 nM | IC50 [30]: > 10000 nM | IC50 (Cytochrome P450 2D6): > 100000 nM | IC50 (Cytochrome P450 3A4): > 100000 nM | IC50 (Cytochrome P450 1A2): > 100000 nM | IC50 (Cytochrome P450 2C9): > 100000 nM | inhibition [31]: inactive | inhibition (Mus musculus): Dose-dependent effect | minimal effective dose (Mus musculus; read-out: MED): 10 mg/kg | inhibition [32]: inactive | Activity (Rattus norvegicus [33]): Dose-dependent effect | Activity (Rattus norvegicus [34]): Active | fraction unbound [35]: 0.34 | IC50 [36]: 25 nM | IC50 [37]: 59 nM

More lines, now with the values ahead:

Ki [3]: 624 nM
SMILES: Cc1c(CC(=O)O)c2cccnc2n1Cc1ccccc1Cl

Ki [3]: 1060 nM
SMILES: Cc1c(CC(=O)O)c2cccnc2n1Cc1cccnc1

Ki [3]: 2230 nM
SMILES: Cc1c(CC(=O)O)c2cccnc2n1Cc1ccncc1

fold change (FC) [1]: 4.1
SMILES: Cc1c(CC(=O)O)c2cccnc2n1Cc1ccc([N+](=O)[O-])cc1

fold change (FC) [1]: 1.3
SMILES: Cc1c(CC(=O)O)c2cccnc2n1S(=O)(=O)c1ccc(F)c(F)c1

fold change (FC) [1]: 3.1 | IC50 [2]: 233 nM | Ki [3]: 249 nM
SMILES: Cc1c(CC(=O)O)c2cccnc2n1Cc1ccc([S+](C)[O-])cc1 (racemic)
